According to patent US11597745B2, “β-modified phosphoric acid compound precursor, β-modified phosphoric acid compound, reaction inhibitor and medicine containing the same, and method for inhibiting reaction” (priority 2018, dated 2023):

Assays:
HIV-1 (NL4-3) WT = assay: Anti-HIV activity measurement, TZM-bl cells, luciferase; assay type: cell-based; conditions: for EC50: Human immunodeficiency virus 1, NL43, TZM-bl, read-out: EC50 for HIV
Method: (§1) TZM-bl cells were cultured in a medium in which fetal bovine serum (Japan Bio Serum) having a final concentration of 10% had been added into Dulbecco's modified Eagle's Medium (DMEM) (SIGMA/Cat. No. D5796), under the conditions of 37° C. and 5% CO2. TZM-bl cells were plated in a 96-well microplate (1.3×10^4 cells/100 μL DMEM+10% FBS). On the following day, a drug solution, and HIV-1 (NL4-3, 10 ng) were added to the culture medium in this order. After two days, […] of culture supernatant was removed, 100 μL of 1×Steady Glo (Promega/Cat. No. E2510) was added into the resultant medium, luciferase in 80 μL of scraped cell lysate was quantified with a dedicated plate (Coster/Cat. No. 3912) IESEL, VERITAS Microplate Luminometer (Promega), and the anti-HIV-1 activity (EC50) of the drug was calculated. Experiments were performed on multiple compounds by using various types of viruses. In Table (A), the “AZT” means azidothymidine, the “Lamivudine” means lamivudine, and the “Didanosine” means didanosine.

HIV M184V = assay: as above; assay type: cell-based, HIV-1; conditions: Human immunodeficiency virus 1, TZM-bl, read-out: EC50 for HIV
Method: as §1

HIV M41L/T215Y = assay: as above; assay type: cell-based, HIV-1; conditions: Human immunodeficiency virus 1, TZM-bl, read-out: EC50 for HIV
Method: as §1

HIV M41L/T69SSG/T215Y = assay: as above; assay type: cell-based, HIV-1; conditions: for EC50: Human immunodeficiency virus 1, TZM-bl, read-out: EC50 for HIV
Method: as §1

[1] = system: HBV (genotype C) in EB-HBCe cells; assay: Anti-HBV activity: HBV DNA of viral particles in culture supernatant of EB-HBCe cells by qPCR; assay type: cell-based, hepatitis B virus; conditions: FIG. 5; for anti-HBV activity (HBV DNA): various final concentrations, 9 days, activity higher at higher concentration
Method: A cell line EB-HBCe, which is derived from a human liver cancer cell HuH-7 and in which the HBV genome (genotype C) constantly replicates, was plated in a 24-well plate, respective compound were added at various final concentrations into the plate, and the cell line EB-HBCe was cultured for 9 days. During the culture, the medium was replaced with new one and the above compounds were added at the same concentration into the plate, every three days.
The culture supernatant was collected, the viral particles were precipitated by the addition of a PNE solution (8.45% PEG 6000, 0.445 M NaCl, 13 mM EDTA), and then the nucleic acids outside the particles were removed by the treatment with DNase I (TAKARA BIO INC.) and RNase A (TAKARA BIO INC.) at 37° C. for 1 hour. Further, after the overnight treatment with Proteinase K, the DNA was extracted with phenol/chloroform, and precipitated with ethanol. The precipitate was solubilized, and then the HBV DNA was quantitatively measured by using SYBR qPCR Mix Kit (TOYOBO CO., LTD.). In FIG. 5, the “SelenoA” indicates the results of addition of compound 13, and the “entecavir” indicates the result of addition of entecavir.

[2] = Cytotoxicity evaluation, MTT assay; assay type: cell-based; conditions: human; MT-4 cells, MTT, 5th day of culture
Method: (§2) In MTT assay, Celltiter 96 Non-radioactive Cell Proliferation Assay (Promega) was used. MT-4 cells were infected with HIV-1 NL4-3 at multiplicity of infection (MOI)=0.001. HIV-1-infected (37° C., 1-1.5 hours) or -uninfected MT-4 cells (2.5×10^5/ml, 100 μL) were aliquoted into a 96-well microplate (final DMSO concentration: 0.5%), and the culture was started at 37° C. and 5% CO2. On the 5th day of the culture, the culture supernatant (100 μL) was removed, 15 μL of dye solution (MTT reagent) was added into each well, and the cells were cultured in a CO2 incubator for 1 hour. Subsequently, 100 μL of solubilization solution/stop mix was added into each well, mixed sufficiently, and the obtained mixture was left to stand at 4° C. overnight. After returning the temperature of the plate to room temperature, DD570/690 was measured with a spectrophotometer (BIO-TEK ELx808, CC50).

MT-4 cells = assay: Cytotoxicity evaluation, MTT assay; assay type: cell-based; conditions: comparison in words from Table 1 (B)
Method: as §2

Row | Structure (SMILES) | EC50 (HIV-1 (NL4-3) WT) [µM] | EC50 (HIV M184V) [µM] | EC50 (HIV M41L/T215Y) [µM] | EC50 (HIV M41L/T69SSG/T215Y) [µM] | anti-HBV activity (HBV DNA) [1] | anti-HBV activity, ranking among SelenoA, Pro SelenoA and Pro A ([1]; concentration of addition 10 μM) | anti-HIV activity compared with Lamivudine and Didanosine (HIV-1 (NL4-3) WT; comparison in words from Table 1 (A), all virus types) | anti-HIV activity compared with AZT (HIV M41L/T69SSG/T215Y; HIV-type M41L/T69SSG/T215Y, comparison in words from Table 1 (A)) | CC50 at 5 day [2] [µM] | toxicity compared with AZT (MT-4 cells)
1 | O=c1[nH]cnc2c1ncn2[C@H]1CC[C@@H](CO)O1 [Didanosine, didanosine, reference compound] | 3.2 | 8.3 | 5.6 | 17 |  |  |  |  |  | 
2 | Nc1ccn([C@@H]2CS[C@H](CO)O2)c(=O)n1 [Lamivudine, lamivudine, reference compound] | 1.2 | > 100 | 1.7 | 24 |  |  |  |  |  | 
3 | CCCSSC1[C@@H](O)[C@@H](COP(O)(=N[C@@H](C)C(=O)OC(C)C)Oc2ccccc2)O[C@H]1n1cnc2c(N)ncnc21 (some centres unmarked) [Pro A] |  |  |  |  | showed anti-HBV activity |  |  |  |  | 
4 | C[Se]C1[C@@H](O)[C@@H](COP(O)(=N[C@@H](C)C(=O)OC(C)C)Oc2ccccc2)O[C@H]1n1cnc2c(N)ncnc21 (some centres unmarked) [Pro SelenoA] | 0.98 | 2 | 1.3 | 1.4 | showed anti-HBV activity | highest anti-HBV activity among these three kinds | higher anti-HIV activity | more excellent anti-HIV activity | > 100 | lower
5 | Nc1ncnc2c1ncn2[C@@H]1O[C@H](CO)[C@@H](O)[C@H]1[SeH] [SelenoA, Seleno adenosine] |  |  |  |  | showed anti-HBV activity |  |  |  |  | 
